This passage reports IC50 results from patent publication US20230026611A1, “ARYL HETEROCYCLIC COMPOUNDS AS Kv1.3 POTASSIUM SHAKER CHANNEL BLOCKERS” (D. E. Shaw Research, LLC, priority 2019, published 2023).

Assay [1] addresses hERG channel (Homo sapiens, UniProt Q12809). The assay can be described thus: hERG electrophysiology, automated whole-cell patch clamp (Patchliner) in CHO-K1 cells stably expressing hERG. In general terms: The hERG channel carries a current that helps repolarise heart muscle cells.
Protocol: Evaluation of hERG Activities
This assay is used to evaluate the disclosed compounds's inhibition activities against the hERG channel.
CHO-K1 cells stably expressing hERG were grown in Ham's F-12 Medium with glutamine containing 10% heat-inactivated FBS, 1% penicillin/streptomycin, hygromycin (100 μg/ml) and G418 (100 μg/ml). Cells were grown in culture flasks at 37° C. in a 5% CO2-humidified incubator.
The cells were bathed in an extracellular solution containing 140 mM NaCl, 4 mM KCl, 2 mM CaCl2), 1 mM MgCl2, 5 mM Glucose, 10 mM HEPES; pH adjusted to 7.4 with NaOH; 295-305 mOsm. The internal solution contained 50 mM KCl, 10 mM NaCl, 60 mM KF, 20 mM EGTA, 10 mM HEPES; pH adjusted to 7.2 with KOH; 285 mOsm. All compounds were dissolved in DMSO at 30 mM. Compound stock solutions were freshly diluted with external solution to concentrations of 30 nM, 100 nM, 300 nM, 1 μM, 3 μM, 10 μM, 30 μM and 100 μM. The highest content of DMSO (0.3%) was present in 100 μM.
The voltage protocol (see Table B) was designed to simulate voltage changes during a cardiac action potential with a 300 ms depolarization to +20 mV (analogous to the plateau phase of the cardiac action potential), a repolarization for 300 ms to −50 mV (inducing a tail current) and a final step to the holding potential of −80 mV. The pulse frequency was 0.3 Hz. Control (compound-free) and compound pulse trains for each compound concentration applied contained 70 pulses.
Whole-cell current recordings and compound application were enabled by means of an automated patch clamp platform Patchliner (Nanion). EPC 10 patch clamp amplifier (HEKA) along with Patchmaster software (HEKA Elektronik Dr. Schulze GmbH) was used for data acquisition. Data were sampled at 10 kHz without filtering. Increasing compound concentrations were applied consecutively to the same cell without washouts in between.
AUC and PEAK values were obtained with Patchmaster (HEKA Elektronik Dr. Schulze GmbH). To determine IC50 the last single pulse in the pulse train corresponding to a given compound concentration was used. Obtained AUC and PEAK values in the presence of compound were normalized to control values in the absence of compound. Using Origin (OridinLab), IC50 was derived from data fit to Hill equation: Icompound/control=(100−A)/(1+([compound]/IC50)nH)+A, where IC50 is the concentration at which current inhibition is half-maximal, [compound] is the applied compound concentration, A is the fraction of current that is not blocked and nH is the Hill coefficient.
For assay [2], the target named is T1, Kv1.3 potassium channel (Homo sapiens, UniProt P22001).
T1 construct: expressed in transfected cells
T1 sequence (P22001 whole entry): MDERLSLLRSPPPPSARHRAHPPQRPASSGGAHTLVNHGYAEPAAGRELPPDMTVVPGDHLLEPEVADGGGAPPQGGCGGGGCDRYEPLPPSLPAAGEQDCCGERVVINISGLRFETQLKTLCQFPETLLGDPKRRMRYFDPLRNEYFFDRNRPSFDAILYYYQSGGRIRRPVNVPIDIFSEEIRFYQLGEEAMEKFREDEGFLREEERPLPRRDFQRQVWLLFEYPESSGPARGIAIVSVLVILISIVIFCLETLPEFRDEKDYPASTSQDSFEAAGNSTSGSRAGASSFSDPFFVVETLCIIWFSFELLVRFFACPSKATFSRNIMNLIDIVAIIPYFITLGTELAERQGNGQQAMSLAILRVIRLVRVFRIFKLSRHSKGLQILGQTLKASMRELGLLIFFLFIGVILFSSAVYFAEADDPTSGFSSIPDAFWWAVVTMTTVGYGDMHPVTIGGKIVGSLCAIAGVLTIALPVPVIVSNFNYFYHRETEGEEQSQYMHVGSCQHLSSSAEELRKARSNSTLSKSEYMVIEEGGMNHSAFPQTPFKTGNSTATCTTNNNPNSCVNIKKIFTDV
Put plainly: Kv1.3 potassium channel blocker activity, automated whole-cell patch clamp (Patchliner) in CHO-K1 cells stably expressing Kv1.3. In kind it is cell-based. The note with it: CHO-K1 cells stably expressing Kv1.3; patch clamp, current inhibition; read-out: Kv1.3 IC50. Summed up: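 CHO-K1 cells stably expressing Kv1.3 were recorded by whole-cell patch clamp, with 100 ms depolarizing pulses from −90 mV holding to +40 mV at 0.1 Hz and 10-second breaks between pulse trains. P/4 online leak subtraction was applied. Compound incubation before the next train was ≤10 seconds, and peak current inhibition was read during equilibration.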
(The patch-clamp technique gives a direct electrical read-out from membranes.)

Sequence of hERG channel (Q12809 whole entry): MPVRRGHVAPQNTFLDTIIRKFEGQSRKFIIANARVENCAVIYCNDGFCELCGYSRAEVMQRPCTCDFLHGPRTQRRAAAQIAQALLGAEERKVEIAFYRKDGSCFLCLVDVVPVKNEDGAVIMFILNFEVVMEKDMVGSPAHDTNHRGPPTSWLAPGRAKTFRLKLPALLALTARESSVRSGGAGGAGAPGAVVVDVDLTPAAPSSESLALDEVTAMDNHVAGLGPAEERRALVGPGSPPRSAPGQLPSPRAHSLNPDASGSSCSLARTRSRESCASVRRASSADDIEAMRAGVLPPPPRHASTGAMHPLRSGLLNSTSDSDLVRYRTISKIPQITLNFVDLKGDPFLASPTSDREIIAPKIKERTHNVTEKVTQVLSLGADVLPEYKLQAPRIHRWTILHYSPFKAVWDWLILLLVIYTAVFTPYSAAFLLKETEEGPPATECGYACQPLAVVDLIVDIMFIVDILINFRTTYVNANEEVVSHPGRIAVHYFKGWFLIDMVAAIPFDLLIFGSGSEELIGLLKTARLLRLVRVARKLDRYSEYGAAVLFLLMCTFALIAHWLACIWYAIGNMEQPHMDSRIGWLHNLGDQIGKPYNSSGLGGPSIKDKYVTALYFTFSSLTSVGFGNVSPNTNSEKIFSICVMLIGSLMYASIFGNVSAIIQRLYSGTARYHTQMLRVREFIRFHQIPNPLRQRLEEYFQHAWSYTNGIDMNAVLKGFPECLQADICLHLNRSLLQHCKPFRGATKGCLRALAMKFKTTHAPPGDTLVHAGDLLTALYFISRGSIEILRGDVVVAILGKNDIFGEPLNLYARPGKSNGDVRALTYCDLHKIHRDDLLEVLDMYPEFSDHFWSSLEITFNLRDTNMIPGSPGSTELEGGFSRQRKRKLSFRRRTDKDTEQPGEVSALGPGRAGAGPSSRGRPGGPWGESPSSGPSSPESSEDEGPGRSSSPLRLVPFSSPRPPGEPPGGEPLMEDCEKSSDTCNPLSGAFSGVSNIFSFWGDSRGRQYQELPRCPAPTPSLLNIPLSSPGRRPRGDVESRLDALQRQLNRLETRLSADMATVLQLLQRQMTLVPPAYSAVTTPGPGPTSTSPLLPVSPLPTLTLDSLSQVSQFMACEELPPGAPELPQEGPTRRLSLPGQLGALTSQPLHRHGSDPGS

On to `NC(=O)CC1CC(c2c(O)ccc(Cl)c2Cl)CCN1` [Compound 101, 2-[(2R,4S)-rel-4-(2,3-dichloro-6-hydroxyphenyl)piperidin-2-yl]acetamide], for which the IC50 is greater than 30 µM in assay [1] and less than 1 µM in assay [2].
The matching figures for `Cn1cc(NC(=O)C[C@H]2C[C@@H](c3c(O)ccc(Cl)c3Cl)CCN2)cn1` (relative stereo) [Compound 114, (2R,4S)-rel-2-[4-(2,3-dichloro-6-hydroxyphenyl)piperidin-2-yl]-N-(1-methyl-1H-pyrazol-4-yl)acetamide]: greater than 30 µM and less than 1 µM.
For the compound `CS(=O)(=O)NCC1CC(c2c(O)ccc(Cl)c2Cl)CCN1` [Compound 100, (2R,4S)-rel-N-[[4-(2,3-dichloro-6-hydroxyphenyl)piperidin-2-yl]methyl]methanesulfonamide], the IC50 in assay [1] is greater than 30 µM; in assay [2] it was less than 1 µM.
In the same order, the values of `Oc1cc(Cl)c(Cl)cc1C1CCNC1` (single isomer, unassigned) [Compound 38, 4,5-dichloro-2-(pyrrolidin-3-yl)phenol] are less than 30 µM and less than 1 µM.
The matching figures for `NC(=O)N1CCC(c2c(O)cc(Cl)c(Cl)c2Cl)CC1` [Compound 60, 4-(2,3,4-trichloro-6-hydroxyphenyl)piperidine-1-carboxamide]: less than 30 µM and less than 1 µM.
In the same order, the values of `NC(=O)NCC1CC(c2c(O)ccc(Cl)c2Cl)CCN1` [Compound 102, (2R,4S)-rel-[4-(2,3-dichloro-6-hydroxyphenyl)piperidin-2-yl]methylurea] are greater than 30 µM and less than 1 µM.
For the compound `OCC1CC(c2cc(Cl)c(Cl)cc2O)CN1` (stereo not drawn) [Compound 36, 4,5-dichloro-2-(5-(hydroxymethyl)pyrrolidin-3-yl)phenol], the results for the IC50 in assay [1] and in assay [2] were less than 30 µM and less than 10 µM, respectively.
The matching figures for `O=C(NC1CNC1)C1CCC(c2c(O)ccc(Cl)c2Cl)NC1` (stereo not drawn) [Compound 125, N-(azetidin-3-yl)-6-(2,3-dichloro-6-hydroxyphenyl)piperidine-3-carboxamide]: greater than 100 µM and less than 10 µM.
The matching figures for `NC(=O)C1CC(c2c(O)cc(Cl)c(Cl)c2Cl)CCN1` (stereo not drawn) [Compound 61, 4-(2,3,4-trichloro-6-hydroxyphenyl)piperidine-2-carboxamide]: less than 30 µM and less than 1 µM.
The matching figures for `OCC1CC(c2cc(Cl)c(Cl)cc2O)CCN1` (stereo not drawn) [Compound 27, 4,5-dichloro-2-[2-(hydroxymethyl)piperidin-4-yl]phenol]: greater than 30 µM and less than 10 µM.
Turning to `O=C(NC1CNC1)[C@H]1CC[C@H](c2c(O)ccc(Cl)c2Cl)N1` (single isomer, unassigned) [Compound 118], the IC50 in assay [1] was greater than 100 µM; in assay [2], less than 1 µM.
The matching figures for `NC(=O)[C@H]1C[C@@H](c2c(O)ccc(Cl)c2Cl)CCN1` (single isomer, unassigned) [Compound 70]: greater than 30 µM and less than 1 µM.
In the same order, the values of `NC[C@H]1C[C@@H](c2c(O)ccc(Cl)c2Cl)CCN1` (relative stereo) [Compound 74, (2R,4S)-rel-2-(aminomethyl)piperidin-4-yl]-3,4-dichlorophenol] are greater than 30 µM and less than 1 µM.
In the same order, the values of `O=C(NC1CNC1)[C@@H]1CN[C@@H](c2c(O)ccc(Cl)c2Cl)C1` (single isomer, unassigned) [Compound 122] are greater than 100 µM and less than 1 µM.
As to `NC(=O)[C@@H]1C[C@H](c2c(O)ccc(Cl)c2Cl)CCN1` (single isomer, unassigned) [Compound 73], the half-maximal inhibitory concentration (IC50) in assay [1] is greater than 30 µM; in assay [2] it was less than 1 µM.
In the same order, the values of `Oc1cc(Cl)c(Cl)cc1C1CCNCC1` [Compound 3, 4,5-dichloro-2-(piperidin-4-yl)phenol] are less than 30 µM and less than 1 µM.
`Oc1ccc(Cl)c(Cl)c1C1CCNCC1` [Compound 55, 3,4-dichloro-2-(piperidin-4-yl)phenol]: the IC50 in assay [1] was less than 30 µM; in assay [2], less than 1 µM.
On to `CN1CCC(c2cc(Cl)c(Cl)cc2O)CC1` [Compound 4, 4,5-dichloro-2-(1-methylpiperidin-4-yl)phenol], for which the IC50 was less than 30 µM in assay [1] and less than 1 µM in assay [2].
The matching figures for `O=C(C[C@@H]1C[C@H](c2c(O)ccc(Cl)c2Cl)CCN1)N1CCOCC1` (single isomer, unassigned) [Compound 32]: greater than 30 µM and less than 1 µM.
Consider `O=C(C[C@H]1C[C@@H](c2c(O)ccc(Cl)c2Cl)CCN1)NC1CCC1` (relative stereo) [Compound 111, N-cyclobutyl-(2R,4S)-rel-2-[4-(2,3-dichloro-6-hydroxyphenyl)piperidin-2-yl]acetamide], for which the values for the IC50 in assay [1] and in assay [2] were less than 30 µM and less than 1 µM, respectively.
In the same order, the values of `CNC(=O)C[C@@H]1C[C@H](c2c(O)ccc(Cl)c2Cl)CCN1` (single isomer, unassigned) [Compound 14] are greater than 30 µM and less than 1 µM.
The matching figures for `O=S(=O)(NC[C@H]1C[C@@H](c2c(O)ccc(Cl)c2Cl)CCN1)C1CC1` (relative stereo) [Compound 97, N-(2R,4S)-rel-[[4-(2,3-dichloro-6-hydroxyphenyl)piperidin-2-yl]methyl]cyclopropanesulfonamide]: greater than 30 µM and less than 1 µM.
In the same order, the values of `Nc1nnc(C2CC(c3c(O)ccc(Cl)c3Cl)CCN2)o1` [Compound 99, (2R,4S)-rel-2-(2-(5-amino-1,3,4-oxadiazol-2-yl)piperidin-4-yl)-3,4-dichlorophenol] are greater than 30 µM and less than 1 µM.
Regarding `CS(=O)(=O)NC[C@H]1C[C@@H](c2c(O)ccc(Cl)c2Cl)CCN1` (relative stereo) [Compound 110, (2R,4S)-rel-N-[[4-(2,3-dichloro-6-hydroxyphenyl)piperidin-2-yl]methyl]methanesulfonamide], the figures for the IC50 in assay [1] and in assay [2] were greater than 30 µM and less than 1 µM, respectively.
In the same order, the values of `O=S1(=O)CCCN1CC1CC(c2c(O)ccc(Cl)c2Cl)CCN1` (stereo not drawn) [Compound 112, 2-[[4-(2,3-dichloro-6-hydroxyphenyl)piperidin-2-yl]methyl]-1,2-thiazolidine-1,1-dione] are less than 30 µM and less than 1 µM.
`CC1(N)CCN(c2cc(Cl)c(Cl)cc2O)CC1` [Compound 25, 2-(4-amino-4-methylpiperidin-l-yl)-4,5-dichlorophenol]: the IC50 in assay [1] was less than 30 µM; in assay [2], less than 1 µM.
Regarding `Oc1ccc(Cl)c(Cl)c1C1CCNC(c2cn[nH]c2)C1` (stereo not drawn) [Compound 116, 3,4-dichloro-2-[2-(1H-pyrazol-4-yl)piperidin-4-yl]phenol], the IC50 was greater than 30 µM in assay [1] and less than 1 µM in assay [2].
In the same order, the values of `Oc1cc(Cl)c(Cl)cc1C1CCNC1` (stereo not drawn) [Compound 21, 4,5-dichloro-2-(pyrrolidin-3-yl)phenol] are less than 30 µM and less than 1 µM.
In the same order, the values of `NC(=O)[C@H]1CNCC[C@H]1c1cc(Cl)c(Cl)cc1O` (single isomer, unassigned) [Compound 42] are greater than 30 µM and less than 1 µM.
In the same order, the values of `CN(C)C1CCN(c2cc(Cl)c(Cl)cc2O)CC1` [Compound 23, 4,5-dichloro-2-[4-(dimethylamino)piperidin-1-yl]phenol] are less than 30 µM and less than 1 µM.

In general, IC50 refers to the concentration at which inhibition is half-maximal.
